# Structures can show the parent of a compound that is named as a salt.
# Biological target: CK2A1 (CK2α/β) (Homo sapiens, UniProt P68400)
# Assay: CK2 kinase assay, CK2A1 (CK2α/β)
# Assay type: biochemical
# Conditions: Table A; read-out: CK2A1 (CK2α/β) (IC50)
# Chain of CK2A1 (CK2α/β) (P68400 whole entry, species assumed): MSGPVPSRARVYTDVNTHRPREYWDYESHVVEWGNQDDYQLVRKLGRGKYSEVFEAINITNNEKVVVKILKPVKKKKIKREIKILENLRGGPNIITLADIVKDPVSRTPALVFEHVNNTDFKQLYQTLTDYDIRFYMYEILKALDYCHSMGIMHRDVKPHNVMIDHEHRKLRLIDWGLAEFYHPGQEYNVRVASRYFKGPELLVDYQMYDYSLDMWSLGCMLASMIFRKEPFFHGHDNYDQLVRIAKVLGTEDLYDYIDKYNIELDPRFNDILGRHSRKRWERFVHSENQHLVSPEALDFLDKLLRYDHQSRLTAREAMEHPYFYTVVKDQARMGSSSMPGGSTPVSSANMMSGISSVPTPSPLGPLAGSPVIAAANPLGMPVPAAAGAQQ
# Chain of CK2A1 (CK2α/β) (P67870 whole entry partner, species assumed): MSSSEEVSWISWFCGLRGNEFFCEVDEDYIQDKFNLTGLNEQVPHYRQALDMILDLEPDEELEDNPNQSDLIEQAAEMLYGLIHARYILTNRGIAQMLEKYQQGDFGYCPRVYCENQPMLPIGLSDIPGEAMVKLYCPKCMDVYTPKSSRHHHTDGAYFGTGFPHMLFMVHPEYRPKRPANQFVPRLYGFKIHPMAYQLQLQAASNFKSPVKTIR
row,IC50 [nM],Compound
1,3.95,"COC1CN(CCCCc2cc(Cl)c(Nc3nc(NC4CC4)c4ncc(C#N)n4n3)cc2C#N)C1 [Example 571, 2-((2-chloro-5-cyano-4-(4-(3-methoxyazetidin-1-yl)butyl)phenyl)amino)-4-(cyclopropylamino)imidazo[2,1-f][1,2,4]triazine-7-carbonitrile]"
2,0.91,"COC(=O)N[C@H]1CN(c2cc(C#N)cc(Nc3nc(NC4CC4)c4ncc(C#N)n4n3)c2Cl)C[C@@H]1OC [Example 288, methyl ((3S,4S)-1-(2-chloro-5-cyano-3-((7-cyano-4-(cyclopropylamino)imidazo[2,1-f][1,2,4]triazin-2-yl)amino)phenyl)-4-methoxy-3-pyrrolidinyl)carbamate]"
3,0.3,"N#Cc1cc(CN2CCNC(=O)C2)c(Cl)c(Nc2nc(NC3CC3)c3ncc(C#N)n3n2)c1 [Example 666, 2-((2-chloro-5-cyano-3-((3-oxopiperazin-1-yl)methyl)phenyl)amino)-4-(cyclopropylamino)imidazo[2,1-f][1,2,4]triazine-7-carbonitrile]"
4,180,"CN(C)C(=O)C1CN(c2cc(C#N)cc(Nc3nc(NC4CC4)c4ncc(C#N)n4n3)c2Cl)CCN1CC(F)F (stereo not drawn) [Example 565, 4-(2-chloro-5-cyano-3-((7-cyano-4-(cyclopropylamino)imidazo[2,1-f][1,2,4]triazin-2-yl)amino)phenyl)-1-(2,2-difluoroethyl)-N,N-dimethylpiperazine-2-carboxamide]"
5,1.46,"N#Cc1cc(Nc2nc(NC3CC3)c3ncc(C#N)n3n2)c(Cl)c([C@H]2CCC[C@@H](N3CC(O)C3)C2)c1 (single isomer, unassigned) [Example 731]"
6,0.69,"CC1(C)CN2CCN(c3cc(C#N)cc(Nc4nc(NC5CC5)c5ncc(C#N)n5n4)c3Cl)C[C@H]2CO1 [Example 303, (S)-2-((2-chloro-5-cyano-3-(3,3-dimethylhexahydropyrazino[2,1-c][1,4]oxazin-8(1H)-yl)phenyl)amino)-4-(cyclopropylamino)imidazo[2,1-f][1,2,4]triazine-7-carbonitrile, HCl]"
7,0.78,"N#Cc1cc(Nc2nc(NC3CC3)c3ncc(C#N)n3n2)c(Cl)c(C2CCN(C(=O)C3CC3)CC2)c1 [Example 236, 2-((2-chloro-5-cyano-3-(1-(cyclopropylcarbonyl)-4-piperidinyl)phenyl)amino)-4-(cyclopropylamino)imidazo[2,1-f][1,2,4]triazine-7-carbonitrile]"
8,3.92,"N#Cc1cc(Nc2nc(NC3CC3)c3ncc(C#N)n3n2)c(Cl)c(N2CCN(C3CN(C(=O)C4(N)CC4)C3)CC2)c1 [Example 500, 2-[(3-{4-[1-(1-aminocyclopropanecarbonyl)azetidin-3-yl]piperazin-1-yl}-2-chloro-5-cyanophenyl)amino]-4-(cyclopropylamino)imidazo[2,1-f][1,2,4]triazine-7-carbonitrile]"
9,0.8,"C[C@H]1OCC[C@@H]1NC1CCN(c2cc(C#N)cc(Nc3nc(NC4CC4)c4ncc(C#N)n4n3)c2Cl)CC1 (racemic) [Example 122, (+/−) 2-((2-chloro-5-cyano-3-(4-(((2R,3S)-2-methyltetrahydro-3-furanyl)amino)-1-piperidinyl)phenyl)amino)-4-(cyclopropylamino)imidazo [2,1-f][1,2,4]triazine-7-carbonitrile]"
10,0.83,"N#Cc1cc(Nc2nc(NC3CC3)c3ncc(C#N)n3n2)c(Cl)c(N2CCN3C[C@@H](F)C[C@H]3C2)c1 (racemic) [Example 437, (+/−)-2-((2-chloro-5-cyano-3-((7R,8aR)-7-fluorohexahydropyrrolo[1,2-a]pyrazin-2(1H)-yl)phenyl)amino)-4-(cyclopropylamino)imidazo[2,1-f][1,2,4]triazine-7-carbonitrile]"
11,1.87,"CN(C)C(=O)C1CN(c2cc(C#N)cc(Nc3nc(NC4CC4)c4ncc(C#N)n4n3)c2Cl)CCN1CC(O)CF (single isomer, unassigned) [Example 316, (+/−) 4-(2-chloro-5-cyano-3-((7-cyano-4-(cyclopropylamino)imidazo [2,1-f][1,2,4]triazin-2-yl)amino)phenyl)-1-(3-fluoro-2-hydroxypropyl)-N,N-dimethyl-2-piperazinecarboxamide]"
12,0.91,"N#Cc1cc(Nc2nc(NC3CC3)c3ncc(C#N)n3n2)c(Cl)c(N2CCC3C(CCN3C[C@H](O)CF)C2)c1 (stereo partly drawn) [Example 449, 2-((2-chloro-5-cyano-3-(1-((S)-3-fluoro-2-hydroxypropyl)hexahydro-1H-pyrrolo[3,2-c]pyridin-5(6H)-yl)phenyl)amino)-4-(cyclopropylamino)imidazo[2,1-f][1,2,4]triazine-7-carbonitrile]"
13,1.58,"CCNc1nc(Nc2cc(C#N)cc(C3CN(C4COC4)C3)c2Cl)nn2c(C#N)cnc12 [Example 359, 2-((2-chloro-5-cyano-3-(1-(oxetan-3-yl)azetidin-3-yl)phenyl)amino)-4-(ethylamino)imidazo[2,1-f][1,2,4]triazine-7-carbonitrile]"
14,0.59,"N#Cc1cc(Nc2nc(NC3CC3)c3ncc(C#N)n3n2)c(Cl)c(N2CCN([C@H]3C[C@H](C#N)C3)CC2)c1 [Example 107, 2-((2-chloro-5-cyano-3-(4-(trans-3-cyanocyclobutyl)-1-piperazinyl)phenyl)amino)-4-(cyclopropylamino) imidazo[2,1-f][1,2,4] triazine-7-carbonitrite]"
15,3.33,"COC(=O)N1CC(N2CCN(c3cc(OC(F)F)cc(Nc4nc(NC5CC5)c5ncc(C#N)n5n4)c3Cl)CC2)C1 [Example 562, methyl 3-(4-(2-chloro-3-((7-cyano-4-(cyclopropylamino)imidazo[2,1-f][1,2,4]triazin-2-yl)amino)-5-(difluoromethoxy)phenyl)piperazin-1-yl)azetidine-1-carboxylate]"
16,0.54,"CC(C)(O)C1CN(C2CN(c3cc(C#N)cc(Nc4nc(NC5CC5)c5ncc(C#N)n5n4)c3Cl)C2)CCO1 (racemic) [Example 165, (+/−)2-(2-chloro-5-cyano-3-(3-(2-(2-hydroxypropan-2-yl)morpholino)azetidin-1-yl)phenylamino)-4-(cyclopropylamino)imidazo [1,2-f][1,2,4]triazine-7-carbonitrile]"
17,1.84,"N#Cc1cc(Nc2nc(NC3CC3)c3ncc(C#N)n3n2)c(Cl)c(C2(O)COC2)c1 [Example 653, 2-((2-chloro-5-cyano-3-(3-hydroxyoxetan-3-yl)phenyl)amino)-4-(cyclopropylamino)imidazo[2,1-f][1,2,4]triazine-7-carbonitrile]"
18,0.87,"N#Cc1cc(Nc2nc(NC3CC3)c3ncc(C#N)n3n2)c(Cl)c(C2CN(C3COC3)C2)c1 [Example 358, 2-((2-chloro-5-cyano-3-(1-(oxetan-3-yl)azetidin-3-yl)phenyl)amino)-4-(cyclopropylamino)imidazo[2,1-f][1,2,4]triazine-7-carbonitrile]"
19,2.11,"CC1(C(=O)N2CCN(c3cc(C(F)F)cc(Nc4nc(NC5CC5)c5ncc(C#N)n5n4)c3Cl)CC2)COC1 [Example 273, 2-((2-chloro-5-(difluoromethyl)-3-(4-((3-methyl-3-oxetanyl)carbonyl)-1-piperazinyl)phenyl)amino)-4-(cyclopropylamino)imidazo[2,1-f][1,2,4]triazine-7-carbonitrile]"
20,1.61,"CS(=O)(=O)CC(=O)N1CC(N2CCN(c3cc(C#N)cc(Nc4nc(NC5CC5)c5ncc(C#N)n5n4)c3Cl)CC2)C1 [Example 486, 2-[(2-chloro-5-cyano-3-{4-[1-(2-methanesulfonylacetyl)azetidin-3-yl]piperazin-1-yl}phenyl)amino]-4-(cyclopropylamino)imidazo[2,1-f][1,2,4]triazine-7-carbonitrile]"
21,1.13,"N#Cc1cc(Nc2nc(NC3CC3)c3ncc(C#N)n3n2)c(Cl)c(N2CCN3C[C@H](O)C[C@@H]3C2)c1 (racemic) [Example 435, (+/−)-2-((2-chloro-5-cyano-3-((7R,8aR)-7-hydroxyhexahydropyrrolo[1,2-a]pyrazin-2(1H)-yl)phenyl)amino)-4-(cyclopropylamino)imidazo[2,1-f][1,2,4]triazine-7-carbonitrile]"
22,1,"N#Cc1cc(CN2CCCC3(COC3)C2)c(Cl)c(Nc2nc(NC3CC3)c3ncc(C#N)n3n2)c1 [Example 463, 2-((3-(2-oxa-6-azaspiro[3.5]nonan-6-ylmethyl)-2-chloro-5-cyanophenyl)amino)-4-(cyclopropylamino)imidazo[2,1-f][1,2,4]triazine-7-carbonitrile]"
23,1.3,"N#Cc1cnc2c(NC3CC3)nc(Nc3cc(C(F)F)cc(N4CCN(C5COC5)CC4)c3Cl)nn12 [Example 242, 2-((2-Chloro-5-(difluoromethyl)-3-(4-(oxetan-3-yl)piperazin-1-yl)phenyl)amino)-4-(cyclopropylamino)imidazo[2,1-f][1,2,4]triazine-7-carbonitrile]"
24,0.9,"COCCN1CCC(c2cc(C#N)cc(Nc3nc(NC4CC4)c4ncc(C#N)n4n3)c2Cl)CC1 [Example 211, 2-(2-chloro-5-cyano-3-(1-(2-methoxyethyl)piperidin-4-yl)phenylamino)-4-(cyclopropylamino)imidazo[1,2-f][1,2,4]triazine-7-carbonitrile]"
25,1.27,"C[C@@H]1CN(c2cc(C#N)cc(Nc3nc(NC4CC4)c4ncc(C#N)n4n3)c2Cl)C[C@@H]1O (racemic) [Example 19, (+/−) 2-((2-chloro-5-cyano-3-((3R,4R)-3-hydroxy-4-methyl-1-pyrrolidinyl)phenyl)amino)-4-(cyclopropylamino)imidazo [2,1-f][1,2,4]triazine-7-carbonitrile]"
26,2.47,"CN(CCNC1COC1)c1cc(C#N)cc(Nc2nc(NC3CC3)c3ncc(C#N)n3n2)c1Cl [Example 51, 2-((2-chloro-5-cyano-3-(methyl(2-(3-oxetanylamino)ethyl)amino)phenyl)amino)-4-(cyclopropylamino)imidazo [2,1-f][1,2,4]triazine-7-carbonitrile]"
27,1.16,"COC(=O)N[C@@H]1CN(c2cc(C#N)cc(Nc3nc(NC4CC4)c4ncc(C#N)n4n3)c2Cl)C[C@H]1C (racemic) [Example 21, (+/−) methyl ((3S,4R)-1-(2-chloro-5-cyano-3-((7-cyano-4-(cyclopropylamino)imidazo [2,1-f][1,2,4]triazin-2-yl)amino)phenyl)-4-methyl-3-pyrrolidinyl)carbamate]"

# — patent US9273057B2 (Bristol-Myers Squibb Company, priority 2012, dated 2016)
